# Assay results taken from patent publication US20240156800A1, “EP300 DEGRADER AND USES THEREOF IN NEUROBLASTOMA” (DANA-FARBER CANCER INSTITUTE, INC., priority 2021, published 2024).
# “Also recorded” adds a separate entry of the source.
# Tests used:
# EP300 = biological target: T1, EP300 (Homo sapiens, UniProt Q09472); test: Western blotting of EP300 in treated NB cells; format: cell-based
# T1 construct: Cells growing in culture were lysed for whole cell lysates; endogenous in cells; host or cells: Kelly, NGP, SIMA, BE2C neuroblastoma cells; Kelly xenografts in NSG mice
# T1 sequence (Q09472 whole entry): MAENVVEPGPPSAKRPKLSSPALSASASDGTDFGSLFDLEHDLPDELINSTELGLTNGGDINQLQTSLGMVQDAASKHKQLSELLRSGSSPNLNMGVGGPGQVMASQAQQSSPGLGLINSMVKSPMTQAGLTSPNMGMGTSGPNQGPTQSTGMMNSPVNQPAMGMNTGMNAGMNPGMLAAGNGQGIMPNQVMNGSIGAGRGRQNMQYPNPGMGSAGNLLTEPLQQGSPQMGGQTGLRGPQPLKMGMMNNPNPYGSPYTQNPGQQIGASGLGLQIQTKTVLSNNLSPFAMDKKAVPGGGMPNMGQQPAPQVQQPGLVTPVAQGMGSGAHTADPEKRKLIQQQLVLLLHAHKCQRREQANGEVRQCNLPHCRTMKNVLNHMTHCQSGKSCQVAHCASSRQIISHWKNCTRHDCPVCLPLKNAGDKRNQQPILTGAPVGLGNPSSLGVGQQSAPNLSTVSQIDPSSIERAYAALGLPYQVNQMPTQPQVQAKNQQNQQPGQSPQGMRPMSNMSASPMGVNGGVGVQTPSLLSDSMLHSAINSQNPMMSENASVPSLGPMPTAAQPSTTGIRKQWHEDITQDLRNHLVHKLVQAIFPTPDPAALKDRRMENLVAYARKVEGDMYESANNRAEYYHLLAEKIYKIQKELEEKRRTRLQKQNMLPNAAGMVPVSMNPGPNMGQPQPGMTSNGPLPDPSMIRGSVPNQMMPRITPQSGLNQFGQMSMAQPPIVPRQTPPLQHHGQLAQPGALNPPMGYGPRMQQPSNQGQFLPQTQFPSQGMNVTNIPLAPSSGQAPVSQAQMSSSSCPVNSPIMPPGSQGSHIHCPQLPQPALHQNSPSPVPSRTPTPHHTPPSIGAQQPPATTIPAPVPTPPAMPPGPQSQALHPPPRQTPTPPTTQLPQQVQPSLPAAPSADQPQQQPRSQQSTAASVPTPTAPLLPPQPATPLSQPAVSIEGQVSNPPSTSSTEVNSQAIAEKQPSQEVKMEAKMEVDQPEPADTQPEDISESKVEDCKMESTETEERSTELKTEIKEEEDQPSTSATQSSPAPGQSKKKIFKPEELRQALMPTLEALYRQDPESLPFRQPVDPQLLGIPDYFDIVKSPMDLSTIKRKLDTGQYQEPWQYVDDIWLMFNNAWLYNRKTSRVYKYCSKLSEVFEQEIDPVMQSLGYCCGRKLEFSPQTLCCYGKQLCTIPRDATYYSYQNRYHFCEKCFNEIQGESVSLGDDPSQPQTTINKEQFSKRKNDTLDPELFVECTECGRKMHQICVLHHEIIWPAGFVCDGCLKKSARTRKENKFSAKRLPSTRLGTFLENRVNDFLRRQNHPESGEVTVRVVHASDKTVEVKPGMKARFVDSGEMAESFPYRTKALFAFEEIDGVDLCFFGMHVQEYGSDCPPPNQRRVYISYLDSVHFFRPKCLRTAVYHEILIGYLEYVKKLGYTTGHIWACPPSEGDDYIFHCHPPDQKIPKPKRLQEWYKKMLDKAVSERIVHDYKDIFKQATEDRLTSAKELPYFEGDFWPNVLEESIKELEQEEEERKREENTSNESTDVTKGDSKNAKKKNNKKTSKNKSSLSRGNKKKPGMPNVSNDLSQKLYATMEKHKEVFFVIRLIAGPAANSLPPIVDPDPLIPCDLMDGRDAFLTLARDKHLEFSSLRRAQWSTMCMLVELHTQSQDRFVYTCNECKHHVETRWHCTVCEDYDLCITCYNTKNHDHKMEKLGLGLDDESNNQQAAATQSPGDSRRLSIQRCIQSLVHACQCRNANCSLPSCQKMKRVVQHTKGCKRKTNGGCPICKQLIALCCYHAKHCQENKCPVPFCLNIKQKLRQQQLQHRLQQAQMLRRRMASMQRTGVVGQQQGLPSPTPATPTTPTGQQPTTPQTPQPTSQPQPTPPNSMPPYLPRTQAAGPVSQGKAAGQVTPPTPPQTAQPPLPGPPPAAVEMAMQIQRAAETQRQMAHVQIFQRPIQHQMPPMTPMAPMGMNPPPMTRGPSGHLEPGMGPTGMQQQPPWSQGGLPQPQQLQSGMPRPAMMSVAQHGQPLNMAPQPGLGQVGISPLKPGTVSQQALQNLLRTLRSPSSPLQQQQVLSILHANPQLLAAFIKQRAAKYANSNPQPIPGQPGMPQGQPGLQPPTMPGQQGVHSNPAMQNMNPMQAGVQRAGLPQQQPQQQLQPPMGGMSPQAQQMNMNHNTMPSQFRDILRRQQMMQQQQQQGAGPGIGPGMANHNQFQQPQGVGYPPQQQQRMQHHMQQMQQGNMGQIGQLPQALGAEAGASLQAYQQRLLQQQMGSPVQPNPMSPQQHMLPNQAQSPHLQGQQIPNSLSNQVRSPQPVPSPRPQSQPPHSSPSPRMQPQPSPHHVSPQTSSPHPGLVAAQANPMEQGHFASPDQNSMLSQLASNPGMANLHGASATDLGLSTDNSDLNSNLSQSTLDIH
# Method: (§1) Cells growing in culture were lysed for whole cell lysates as described in Durbin et al. Nat. Genet. 50:1240-1246 (2018) and Wang et al. Nat. Commun. 10:5622 (2019). Nuclear lysates were prepared using the NE-PER® nuclear lysate kit (Thermo Scientific™) according to the manufacturer's protocol. Chromatin lysates were prepared with the total histone extraction kit (Epigentek). Briefly, equivalent amounts of protein were resolved by western blotting using 4-12% Bis-Tris NuPAGE™ gels (Thermo-Fisher Scientific) prior to transfer, and immunoblotting using primary antibodies to: MYCN (1:1000, Cell Signaling Technology®), H3K27ac (1:1000, Abcam), total H3 (1:1000, Cell Signaling Technology®), EP300 (1:1000, Abcam), CBP (1:500, Cell Signaling Technology®), Cas9 (1:1000, Cell Signaling Technology®), cleaved-PARP1 (1:1000, Cell Signaling Technology), cleaved Caspase-3 (1:1000, Cell Signaling Technology®), β-actin (1:1000, Cell Signaling Technology®), GATA3 (1:1000, EMD Millipore™), TFAP2β (1:1000, Cell Signaling Technology®), Vinculin (1:1000, EMD Millipore™), CRBN (1:1000, Cell Signaling Technology®), HAND2 (1:1000, Santa Cruz Biotechnology). Secondary antibodies were horseradish peroxidase (HRP)-conjugated anti-rabbit or anti-mouse (1:5000, Santa Cruz Biotechnology), incubated prior to exposure to enhanced chemiluminescence reagents (GE, Amersham). For immunoprecipitation, equal amounts of protein were diluted in buffer C as described in Mansour et al. Science 346:1373-1377 (2014) and incubated with antibodies covalently conjugated to Dynabeads™ M-270 beads (Thermo-Fisher Scientific) overnight according to the manufacturer's directions. Antibodies used included: H3K27ac, EP300 (Abcam), CBP, TFAP2β (Cell Signaling Technology®), rabbit immunoglobulin G (IgG) (Santa Cruz Biotechnology®). Immunoprecipitated protein was isolated as per the manufacturer's directions and subjected to western blotting, as described above, or mass spectrometry.
# CBP [1] = biological target: T2, CBP (Homo sapiens, UniProt Q92793); test: Western blotting of CBP in treated NB cells; format: cell-based
# T2 construct: Cells growing in culture were lysed for whole cell lysates; endogenous in cells; host or cells: Kelly, NGP, SIMA, BE2C neuroblastoma cells; Kelly xenografts in NSG mice
# T2 sequence (Q92793 whole entry): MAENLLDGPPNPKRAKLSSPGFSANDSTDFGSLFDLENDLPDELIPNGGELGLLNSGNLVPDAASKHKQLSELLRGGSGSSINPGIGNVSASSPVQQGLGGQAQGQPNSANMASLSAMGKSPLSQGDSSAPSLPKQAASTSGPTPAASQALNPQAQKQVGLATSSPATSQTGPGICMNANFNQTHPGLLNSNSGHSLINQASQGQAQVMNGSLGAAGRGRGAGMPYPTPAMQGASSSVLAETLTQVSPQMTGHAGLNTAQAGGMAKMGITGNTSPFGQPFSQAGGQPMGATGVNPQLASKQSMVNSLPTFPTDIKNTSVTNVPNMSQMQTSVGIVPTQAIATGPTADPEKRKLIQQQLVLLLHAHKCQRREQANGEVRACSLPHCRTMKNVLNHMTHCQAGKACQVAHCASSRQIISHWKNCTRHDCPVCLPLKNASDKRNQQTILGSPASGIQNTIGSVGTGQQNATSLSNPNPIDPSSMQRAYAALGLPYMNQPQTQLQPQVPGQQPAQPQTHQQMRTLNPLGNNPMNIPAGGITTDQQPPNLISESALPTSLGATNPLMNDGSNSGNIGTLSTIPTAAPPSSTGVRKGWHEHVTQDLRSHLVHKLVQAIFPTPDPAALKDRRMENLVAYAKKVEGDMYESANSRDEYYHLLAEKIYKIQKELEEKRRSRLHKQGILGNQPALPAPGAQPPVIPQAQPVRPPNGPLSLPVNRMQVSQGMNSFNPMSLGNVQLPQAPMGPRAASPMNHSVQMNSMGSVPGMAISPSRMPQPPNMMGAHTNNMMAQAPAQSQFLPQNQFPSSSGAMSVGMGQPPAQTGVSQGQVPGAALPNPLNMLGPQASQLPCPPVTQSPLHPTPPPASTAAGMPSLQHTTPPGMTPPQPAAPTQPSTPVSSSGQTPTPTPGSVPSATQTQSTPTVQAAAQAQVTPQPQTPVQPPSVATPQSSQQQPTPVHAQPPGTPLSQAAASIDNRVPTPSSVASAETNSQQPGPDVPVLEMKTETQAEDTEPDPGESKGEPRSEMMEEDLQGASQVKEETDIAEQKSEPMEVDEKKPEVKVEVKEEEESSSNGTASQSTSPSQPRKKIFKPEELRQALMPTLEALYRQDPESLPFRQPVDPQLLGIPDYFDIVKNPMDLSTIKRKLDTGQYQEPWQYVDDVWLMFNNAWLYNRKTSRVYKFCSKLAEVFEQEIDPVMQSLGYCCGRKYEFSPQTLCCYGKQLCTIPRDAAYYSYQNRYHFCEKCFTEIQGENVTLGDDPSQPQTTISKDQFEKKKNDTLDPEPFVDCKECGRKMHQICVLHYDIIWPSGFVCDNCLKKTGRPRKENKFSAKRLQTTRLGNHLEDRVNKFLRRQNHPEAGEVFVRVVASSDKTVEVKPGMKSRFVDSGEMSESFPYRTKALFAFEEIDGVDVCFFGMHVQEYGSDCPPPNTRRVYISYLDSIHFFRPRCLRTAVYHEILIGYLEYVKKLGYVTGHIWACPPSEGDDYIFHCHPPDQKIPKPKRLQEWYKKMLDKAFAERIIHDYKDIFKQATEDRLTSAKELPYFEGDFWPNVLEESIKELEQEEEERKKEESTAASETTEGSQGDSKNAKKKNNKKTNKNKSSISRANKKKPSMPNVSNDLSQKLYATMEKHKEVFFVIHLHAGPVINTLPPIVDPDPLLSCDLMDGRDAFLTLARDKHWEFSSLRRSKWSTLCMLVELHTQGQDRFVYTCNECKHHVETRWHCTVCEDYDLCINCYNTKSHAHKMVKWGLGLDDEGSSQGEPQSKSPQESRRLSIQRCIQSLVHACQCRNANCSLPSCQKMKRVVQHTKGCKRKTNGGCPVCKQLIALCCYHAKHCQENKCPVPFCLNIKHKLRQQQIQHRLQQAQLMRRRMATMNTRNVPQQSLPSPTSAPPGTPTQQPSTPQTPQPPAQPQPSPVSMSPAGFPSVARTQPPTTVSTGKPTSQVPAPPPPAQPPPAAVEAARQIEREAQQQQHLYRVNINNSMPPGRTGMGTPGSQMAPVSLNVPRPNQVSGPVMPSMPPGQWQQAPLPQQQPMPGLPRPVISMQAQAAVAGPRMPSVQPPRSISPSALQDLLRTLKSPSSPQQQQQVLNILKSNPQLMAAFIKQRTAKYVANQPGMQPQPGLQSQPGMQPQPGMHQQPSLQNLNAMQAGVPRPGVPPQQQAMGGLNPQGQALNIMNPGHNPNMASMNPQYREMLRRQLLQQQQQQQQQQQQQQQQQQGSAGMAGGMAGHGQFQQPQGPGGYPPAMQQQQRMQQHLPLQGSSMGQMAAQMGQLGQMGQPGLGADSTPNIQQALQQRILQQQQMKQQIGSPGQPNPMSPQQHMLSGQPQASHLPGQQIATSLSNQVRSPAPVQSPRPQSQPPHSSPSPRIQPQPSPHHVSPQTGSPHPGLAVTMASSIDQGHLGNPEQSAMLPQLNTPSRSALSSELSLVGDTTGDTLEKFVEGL
# Method: as §1
# H3K27ac = test: Western blotting of H3K27ac in treated NB cells; format: cell-based, human; conditions: Kelly cells, 24 h
# Method: as §1
# [2] = test system: Kelly, NGP and BE2C NB cells; test: Propidium iodide DNA flow cytometry (cell cycle, sub-G1); format: cell-based, human; conditions: Kelly and NGP cells
# Method: Cells were infected with lentiviruses encoding single guide RNAs (sgRNAs) or treated with compounds as described for the noted length of time. Cells were then liberated from adhesion to the plate using a sterile spatula (Coming®) followed by centrifugation, aspiration of media, and resuspension in hypotonic citrate-propidium iodide (PI) solution for 30 minutes at 37° C. (Tate et al. Cytometry 4:211-215 (1983)). Nuclei were stabilized using 5M NaCl prior to analysis on a FACSAria™ II (BD Biosciences). Analysis of cell cycle phases was performed using FlowJo® v10.7 (BD Biosciences).
# [3] = test system: cleaved caspase-3 and cleaved PARP1; test: Western blotting of apoptosis markers; format: cell-based, human; conditions: Kelly (1 μM) and NGP (2.5 μM) cells, 12-36 h
# Method: as §1
# Kelly NB cell xenografts = test: Kelly NB cell subcutaneous xenografts in NSG mice; format: in vivo; conditions: 40 mg/Kg IP once or twice daily
# Method: For tumor studies, eight-week-old female NSG™ mice (Jackson Laboratories) were subcutaneously implanted with 2.5×10^6 Kelly cells in 50% matrigel/PBS. Mice were assigned to three groups: vehicle (n=11), JQAD1 (40 mg/kg/day) (n=12) or JQAD1 (40 mg/kg, twice daily) (n=12) by IP injection. Treatment with small-molecule inhibitors was initiated once tumors engrafted and reached 100-150 mm^3. Mice were treated for 21 days and then followed for survival. Tumors were measured by calipers, and mice were weighed every three days. Animals were euthanized according to institutional guidelines when tumors reached […] in length or width, or if animals became moribund. Tumor sizes were compared at each time point by two-way ANOVA with post-hoc Tukey tests. Tumor growth curve kinetics were analyzed by both logistic regression and mixed-effects two-way ANOVA with post-hoc Tukey tests to determine whether growth kinetics differed between treatment groups.
# Separately, eight animals were xenografted as described above, and treated with vehicle (n=4) or JQAD1 (n=4) at 40 mg/kg IP daily for 14 days. These animals were sacrificed at day 14, following which tumor was extracted, and divided for immunohistochemical analysis or analysis of RNA expression by RNA sequencing (RNA-seq).
# CBP [4] = biological target: T2, CBP; test: Immunohistochemistry of CBP in Kelly cell xenografts; format: in vivo; conditions: 40 mg/Kg once daily
# Method: Separately, eight animals were xenografted as described above, and treated with vehicle (n=4) or JQAD1 (n=4) at 40 mg/kg IP daily for 14 days. These animals were sacrificed at day 14, following which tumor was extracted, and divided for immunohistochemical analysis or analysis of RNA expression by RNA sequencing (RNA-seq). Immunohistochemistry was performed on the Leica® Bond™ III automated staining platform. Antibody EP300 from Cell Signaling Technology®, catalog number 86377, clone D8Z4E, was run at 1:50 dilution using the Leica® Biosystems Refine Detection Kit with citrate antigen retrieval. Antibody KAT3A/CBP (catalog number ab2832, polyclonal, Abcam) was run at 1:200 using the Leica® Biosystems Refine Detection Kit with ethylenediaminetetraacetic acid (EDTA) antigen retrieval.
smiles,measurement,setting,value
"C[C@H](N(Cc1ccc(F)cc1)C(=O)CN1C(=O)O[C@@]2(CCc3cc(NC(=O)CCCCCCCCCCCNc4ccc5c(c4)C(=O)N(C4CCC(=O)NC4=O)C5=O)ccc32)C1=O)C(F)(F)F (stereo partly drawn) [JQAD1, 12-((2-(2,6-dioxopiperidin-3-yl)-1,3-dioxoisoindolin-5-yl)amino)-N-((R)-3′-(2-((4-fluorobenzyl)((S)-1,1,1-trifluoropropan-2-yl)amino)-2-oxoethyl)-2′,4′-dioxo-2,3-dihydrospiro[indene-1,5′-oxazolidin]-5-yl)dodecanamide]",EP300 expression in BE2C-CRBN cells,"EP300; BE2C cells overexpressing CRBN, 10 μM",degraded within 24 h
same,EP300 expression in control BE2C-zsGreen cells,"EP300; BE2C-zsGreen cells, 10 μM",unaffected
same,"degradation of EP300 on co-treatment with excess A485, pomalidomide, bortezomib or MLN4924","EP300; Kelly cells, 4 h pre-treatment, then JQAD1 500 nM 48 h",blocked
same,EP300 expression,"EP300; Kelly cells, 24 h",dose-dependent decrease in EP300 expression
same,EP300 expression,"EP300; Kelly cells, 24 h, listed as (R,S)-JQAD1",suppressed both H3K27ac and EP300 expression levels
same,EP300 expression (time course),"EP300; Kelly, NGP and SIMA cells",selective loss of EP300 expression by 24 h
same,"EP300, H3K27ac and PARP1 cleavage in control versus CRBN-edited cells","EP300; Kelly-Cas9 cells, 500 nM, 24 h","suppressed EP300 expression and the H3K27ac modification, and induced apoptosis marked by PARP1 cleavage in control knockout cells, but not in CRBN-edited cells"
same,CBP expression levels,"CBP [1]; Kelly cells, 24 h",neither compound had significant effects on expression levels of CBP
same,CBP detection at 24 h,"CBP [1]; Kelly, NGP and SIMA cells, 24 h",could still be detected
same,CBP expression with extended treatment,"CBP [1]; Kelly, NGP and SIMA cells, extended treatment",loss of CBP expression was observed
same,H3K27ac modification,H3K27ac,parallel loss of the H3K27ac modification
same,H3K27ac modification,"H3K27ac; listed as (R,S)-JQAD1",suppressed both H3K27ac and EP300 expression levels
same,cell cycle / subG1 effect,[2],induction of a subG1 peak
same,apoptosis: cleavage of caspase-3 and PARP1,[3],induction of cellular apoptosis marked by cleavage of caspase-3 and PARP1
same,body weight,Kelly NB cell xenografts; NSG mice,body weight was maintained over 14 days of treatment
same,survival,Kelly NB cell xenografts; log-rank p<0.0001 versus vehicle,prolongation of survival; also recorded: prolongs survival
same,xenograft tumor growth,Kelly NB cell xenografts; p<0.05,suppression of xenograft tumor growth by day 3 of treatment
same,CBP immunostaining of tumors,CBP [4],CBP immunostaining was retained
